One series has as its system PNT1a. Briefly: MTT cytotoxicity, 72 h. Format: cell-based. The settings on record: platinum complexes.
The subject of series [1] is DNMT enzymes in HCT-116 cells. In words: DNMT activity in nuclear extracts of treated cells. Format: cell-based, human. The settings on record: 24 h. On the procedure: In these experiments, the total activity of DNMT enzymes was determined in nuclear extracts prepared from HCT-116 cells which were treated with the platinum compounds, free OA or decitabine for 24 h (Fig. 4B).
Human colon carcinoma cells (HCT-116) were seeded in 100 mm culture dishes at the density 1.5 × 10^6 cells/dish. Cells were harvested after 24 h of incubation with the compounds tested in the present work (1 µM). Nuclear extracts from the pellets were separated using EpiQuik Nuclear extraction kit I (Epigentek, NY) according to manufacturer’s instructions. Quantification of nuclear proteins was analyzed with the standard Bradford assay. The activity of DNMT enzymes was analyzed using the EpiQuik DNMT activity/inhibition assay Ultra kit (Epigentek, NY), according to the manufacturer´s protocol. Briefly, 10 µg of total nuclear protein was analyzed for its DNMT activity. The reaction time with a universal DNMT substrate stably coated onto microplate wells was 120 min at 37 °C. The final signal at the end of the ELISA reaction was detected at 450 nm (reference 620 nm). DNMT activity was normalized to controls and expressed in the percent or absolute values as OD h^−1 mg^−1, calculated as described in the manufacturer’s manual.

For series [2], the system named is HCT-116 cells. Briefly: Cellular platinum accumulation/distribution by ICP-MS. It counts as cell-based, human. The settings on record: HCT-116, 24 h, 0.35 µM.
In another series the test system is DNA from A2780 cells. Briefly: Platinum content on DNA isolated from treated cells (ICP-MS). Format: cell-based, human. The settings on record: for Platinum content on DNA / Platinum on DNA, % from the total intracellular Pt amount: A2780, 24 h, 0.35 µM; for Platinum on DNA, % from the total intracellular Pt amount: rough estimate from Tables 2 and 3. The procedure: (§1) As for antitumor cisplatin and its direct derivatives, DNA is believed to be the target also for Pt(IV) prodrugs examined in the present work.
(§2) The cells were seeded in 150 cm^2 culture flasks at a density 1 × 10^7 cells/flask (67 000 cells/cm^2). After 48-h incubation, the cells were treated with the compounds (0.35 μM) for 24 h. The attached cells were washed twice with PBS (4 °C). As mentioned in the preceding paragraph, 75% of cells were used for analysis of platinum bound to DNA, remaining 25% were used for estimations of cellular accumulation of platinum. Cells were then lysed in DNAzol (DNAzol® genomic DNA isolation reagent, MRC) supplemented with RNase A (100 μg mL^−1). The genomic DNA was precipitated from the lysate with ethanol, dried and resuspended in water. The DNA content in each sample was determined by UV spectrophotometry. The DNA samples were digested in the presence of hydrochloric acid (11 M) using high-pressure microwave mineralization system (MARS5, CEM). The platinum content was determined by ICP-MS. Experiments were performed in triplicate and the values are the means ± SD.

In the next series the test system is DNA from HCT-116 cells. The description is as above. The settings on record: for Platinum content on DNA / Platinum on DNA, % from the total intracellular Pt amount: HCT-116, 24 h, 0.35 µM; for Platinum on DNA, % from the total intracellular Pt amount: rough estimate from Tables 2 and 3. Format: cell-based, human. On the procedure: as §1, §2
In a further series the test system is A2780 cells. Briefly: Cellular platinum accumulation/distribution by ICP-MS. Format: cell-based, human. The settings on record: for Platinum in cytosol / Platinum in nucleus: A2780, 24 h; for Platinum in cytosol / Platinum in nucleus / Total cellular platinum accumulation: 0.35 µM; for Total cellular platinum accumulation: A2780, 24 h exposure. The procedure: (§3) Cellular concentrations of platinum were determined by inductively coupled plasma mass spectrometry (ICP-MS) after 24 h of exposure to the complexes at the concentration of 0.35 µM.
(§4) Cellular uptake studies were also carried out to measure the accumulation of platinum species in cytosol and nucleus. […] The platinum levels in each pool were measured by ICP-MS. The extent of accumulation of both OA conjugated Pt(IV) prodrugs into the cytosol and nucleus fractions was markedly higher than that of cisplatin or Pt(IV)diAc.
(§5) The cells were seeded in 150 cm^2 culture flasks at a density 1 × 10^7 cells/flask (67 000 cells/cm^2). After 48-h incubation, the cells were treated with the compounds (0.35 μM) for 24 h. The attached cells were washed twice with PBS (4 °C). Seventy-five percent of cells were used for analysis of platinum bound to DNA, remaining 25% were used for estimations of cellular accumulation of platinum. Cell pellets were digested by a high-pressure microwave digestion system (MARS5, CEM) with HCl to give a fully homogenized solution, and final platinum content was determined by ICP-MS. The analysis with the aid of ICP-MS was performed using Agilent 7500 (Agilent, Japan) or Thermo Optek X Series.
(§6) A2780 cells were seeded in 100 mm tissue culture dishes (3 × 10^6 cells) and grown for 48 h to 80–90% confluence. Cells were harvested after 24 h of treatment. Concretely, the dishes were washed two times with ice-cold PBS and the cells scraped into tubes and centrifuged for 10 min at 0 °C (200 g). The pellets were resuspended in the lysis buffer [Tris·HCl (10 mM, pH 8.0), KCl (60 mM), EDTA (1.2 mM), DTT (1 mM), phenylmethanesulfonyl fluoride (PMSF, 0.1 mM), NP-40 (0.04%)] for 10 min on ice and centrifuged for 4 min at 0 °C (800 g). Cytosolic fraction was separated for platinum ICP-MS analysis, and protein concentration was determined by Bradford assay. The pellets were rinsed with the above lysis buffer without PMSF and NP-40 and centrifuged for another 4 min at 0 °C (300 g). The pellets were resuspended in 50 µL nuclear extraction buffer [Tris·HCl (20 mM, pH 8.0), NaCl (420 mM), MgCl2 (0.7 mM), EDTA (0.25 mM), glycerol (25%)] and incubated for 30 min at 4 °C, continuously mixed on end-over-end roller, and then centrifuged for 15 min at 0 °C (13000 g). Protein concentration in nuclear extracts was determined by the Bradford assay, and stored at −80 °C until analysis.

The test system of series [3] is HCT-116 cells. Described as above. It counts as cell-based, human. The settings on record: for Total cellular platinum accumulation: HCT-116, 24 h exposure, 0.35 µM. The procedure: as §3, §4, §5, §6
Series [4] relates to A2780 human ovarian carcinoma cells. In words: MTT cytotoxicity, 72 h. Format: cell-based. The settings on record: for IC50: MTT, 72 h, platinum complexes.

Structures are written as SMILES.

The term IC50 denotes the midpoint of a concentration-inhibition curve. High values mean weaker potency, low ones greater potency. In the case of `CC(=O)[O][Pt]([NH2])([NH2])([Cl])([Cl])[O]C(C)=O` [Pt(IV)diAc, cis, cis, trans-[Pt(IV)(NH3)2Cl2(Ac)2]], the IC50 is 2480 ± 100 nM in the series with PNT1a and 5300 ± 1000 nM in series [4]. In series [1] (HCT-116, 1.0 µM), the “Activity of DNMT enzymes” value is given as “no significant effect”. Besides, the Platinum in cytosol in the series with HCT-116 cells [2] amounted to 2.1 ± 0.3 pg Pt/µg protein; in the series with A2780 cells it was 3.0 ± 0.4 pg Pt/µg protein. Besides, the Platinum in nucleus in the series with HCT-116 cells [2] came out at 4.6 ± 0.5 pg Pt/µg protein; in the series on A2780 cells, 3.0 ± 0.5 pg Pt/µg protein. In addition, the “Platinum content on DNA” value with DNA from A2780 cells amounted to 1.1 ± 0.4 pg Pt/µg DNA; in the series with DNA from HCT-116 cells it was 1.3 ± 0.1 pg Pt/µg DNA. Also, the “Platinum on DNA, % from the total intracellular Pt amount” value (from here on “Platinum on DNA, %”) was 1.9% with DNA from A2780 cells and 2.0% in the series with DNA from HCT-116 cells. Also, the “Total cellular platinum accumulation” value in the series on A2780 cells is recorded as 0.45 ± 0.09 ng Pt/10^6 cells; in the series on HCT-116 cells [3], 0.19 ± 0.04 ng Pt/10^6 cells.

With `N.N.[Cl][Pt][Cl]` [cisplatin, reference compound], the results for the IC50 (with PNT1a; in series [4]) were 2500 ± 320 nM and 2800 ± 100 nM, respectively. Besides, the “Activity of DNMT enzymes” value is recorded as “no significant effect” in series [1] (HCT-116, 1.0 µM) and “no significant effect” in series [1] (HCT-116, 30 µM). Further, the Platinum in cytosol with HCT-116 cells [2] amounted to 3.6 ± 0.2 pg Pt/µg protein; in the series with A2780 cells, 5.5 ± 0.9 pg Pt/µg protein. In addition, the Platinum in nucleus in the series with HCT-116 cells [2] worked out at 4.1 ± 0.3 pg Pt/µg protein; in the series on A2780 cells it was 3.0 ± 0.7 pg Pt/µg protein. Further, the “Platinum content on DNA” value with DNA from A2780 cells is on record as 1.5 ± 0.6 pg Pt/µg DNA; in the series on DNA from HCT-116 cells it was 1.6 ± 0.2 pg Pt/µg DNA. Also, the “Platinum on DNA, %” value was 2.0% with DNA from A2780 cells and 2.2% in the series with DNA from HCT-116 cells. Further, the entries for the “Total cellular platinum accumulation” value in the series on A2780 cells and in the series on HCT-116 cells [3] were 0.8 ± 0.2 ng Pt/10^6 cells and 0.9 ± 0.1 ng Pt/10^6 cells, respectively.

With `CCCCCCCC(=O)[O][Pt]([NH2])([NH2])([Cl])([Cl])[O]C(=O)CCCCCCC` [Pt(IV)diOA, cis, cis, trans-[Pt(IV)(NH3)2Cl2(OA)2]], the IC50 in the series with PNT1a amounted to 22 ± 1 nM; in series [4] it was 41 ± 1 nM. In addition, the “Activity of DNMT enzymes” value in series [1] (HCT-116, 0.5 µM) is given as “enhanced activity of DNMT enzymes”; in series [1] (HCT-116, 1.0 µM), “enhanced activity of DNMT enzymes”. Also, the figures for the Platinum in cytosol in the series on HCT-116 cells [2] and in the series on A2780 cells were 59 ± 7 pg Pt/µg protein and 138 ± 12 pg Pt/µg protein, respectively. Further, the figures for the Platinum in nucleus in the series with HCT-116 cells [2] and with A2780 cells were 189 ± 9 pg Pt/µg protein and 173 ± 15 pg Pt/µg protein, respectively. Also, the figures for the “Platinum content on DNA” value in the series with DNA from A2780 cells and with DNA from HCT-116 cells were 43.3 ± 5.3 pg Pt/µg DNA and 123.1 ± 5.1 pg Pt/µg DNA, respectively. The figures for the “Platinum on DNA, %” value with DNA from A2780 cells and in the series on DNA from HCT-116 cells were 13.0% and 11.9%, respectively. The “Increase of DNA platination vs. cisplatin” value in the series on DNA from A2780 cells (A2780, Fig. 2A) stood at 28 x; in the series on DNA from HCT-116 cells (HCT-116, Fig. 2B), 77 x. For the same molecule, the “Increase of DNA platination vs. Pt(IV)diAc” value with DNA from A2780 cells (A2780, Fig. 2C) is given as 39 x; in the series with DNA from HCT-116 cells (HCT-116, Fig. 2D), 95 x. The “Total cellular platinum accumulation” value with A2780 cells was found to be 12.9 ± 0.3 ng Pt/10^6 cells; in the series on HCT-116 cells [3], 29.2 ± 0.3 ng Pt/10^6 cells. The “Increase of cellular accumulation vs. cisplatin” value was found to be 16 x with A2780 cells (A2780, Fig. 2A) and 34 x in the series with HCT-116 cells [3] (HCT-116, Fig. 2B). The “Increase of cellular accumulation vs. Pt(IV)diAc” value in the series on A2780 cells (A2780, Fig. 2C) is 29 x; in the series on HCT-116 cells [3] (HCT-116, Fig. 2D), 153 x. In addition, the “Increase of cytotoxicity vs. cisplatin” value in series [4] (A2780, Fig. 2A) is reported as 68 x. The “Increase of cytotoxicity vs. Pt(IV)diAc” value in series [4] (A2780, Fig. 2C) was determined as 129 x.

Values taken from publication PMC5473904, “Epigenetic and antitumor effects of platinum(IV)-octanoato conjugates” (Scientific Reports, 2017).
